In patent US20260130925A1, “METHODS FOR TREATING CANCER” (Genesis Molecular AI, Inc., priority 2022, published 2026):

How the values were obtained:
[1] = target: T1, PI3Kα H1047R in T47D cells (Homo sapiens, UniProt P42336, H1047R); assay: PI3Kα cellular assay: T47D pAKT S473 HTRF; assay type: cell-based
T1 construct: endogenous in cells; host or cells: T47D
Description: PI3Kα cellular assay experimental procedure: SKBR3 or T47D cells are seeded in DMEM containing 10% FBS at 25 k cells/well into 96-well cell culture format. Cells are incubated overnight at 37° C. in a 5% CO2 incubator and the following day cell media is aspirated, adherent cells are washed 1× with room temperature PBS prior to serum-free media application. Cells are returned to 37° C. 5% CO2 incubator and incubated a further 16 hrs. Compounds are added to serum starved adherent cells with a top dose of 10,000 nM and 3× multiple dose reductions for a minimum dose of 0.5 nM diluted in DMSO. Cell/compound incubation continues for 1 hr in a 37° C., 5% CO2 incubator prior to 10 minute PIK3CA stimulation with 20 ng/ml EGF. Cells treated with 0.1% DMSO and 20 ng/mL EGF are employed as negative control, cells treated with 10 uM Alpelisib and 20 ng/mL EGF are employed as a positive control. After 10 mins, plates are removed from incubator and cells are lysed with buffer and shaking 45 minutes. 20 μL of lysate is transferred to an opti-384 plate and 2.5 μl of Phospho-AKT d2 antibody with 2.5 μl of Phospho-AKT Eu Cryptate solution in the detection buffer are added to each well. 384 well plate is left overnight at room temperature before reading HTRF on an Envision plate reader.

[2] = target: PI3K H1047R (Homo sapiens, UniProt P42336, H1047R); assay: PI3K H1047R ADP-Glo (PI/PS); assay type: biochemical; parameters: PI3K H1047R ADP-Glo (PI/PS) IC50: H1047R Selectivity: reference not given here
PI3K H1047R, sequence (P42336 whole entry H1047R): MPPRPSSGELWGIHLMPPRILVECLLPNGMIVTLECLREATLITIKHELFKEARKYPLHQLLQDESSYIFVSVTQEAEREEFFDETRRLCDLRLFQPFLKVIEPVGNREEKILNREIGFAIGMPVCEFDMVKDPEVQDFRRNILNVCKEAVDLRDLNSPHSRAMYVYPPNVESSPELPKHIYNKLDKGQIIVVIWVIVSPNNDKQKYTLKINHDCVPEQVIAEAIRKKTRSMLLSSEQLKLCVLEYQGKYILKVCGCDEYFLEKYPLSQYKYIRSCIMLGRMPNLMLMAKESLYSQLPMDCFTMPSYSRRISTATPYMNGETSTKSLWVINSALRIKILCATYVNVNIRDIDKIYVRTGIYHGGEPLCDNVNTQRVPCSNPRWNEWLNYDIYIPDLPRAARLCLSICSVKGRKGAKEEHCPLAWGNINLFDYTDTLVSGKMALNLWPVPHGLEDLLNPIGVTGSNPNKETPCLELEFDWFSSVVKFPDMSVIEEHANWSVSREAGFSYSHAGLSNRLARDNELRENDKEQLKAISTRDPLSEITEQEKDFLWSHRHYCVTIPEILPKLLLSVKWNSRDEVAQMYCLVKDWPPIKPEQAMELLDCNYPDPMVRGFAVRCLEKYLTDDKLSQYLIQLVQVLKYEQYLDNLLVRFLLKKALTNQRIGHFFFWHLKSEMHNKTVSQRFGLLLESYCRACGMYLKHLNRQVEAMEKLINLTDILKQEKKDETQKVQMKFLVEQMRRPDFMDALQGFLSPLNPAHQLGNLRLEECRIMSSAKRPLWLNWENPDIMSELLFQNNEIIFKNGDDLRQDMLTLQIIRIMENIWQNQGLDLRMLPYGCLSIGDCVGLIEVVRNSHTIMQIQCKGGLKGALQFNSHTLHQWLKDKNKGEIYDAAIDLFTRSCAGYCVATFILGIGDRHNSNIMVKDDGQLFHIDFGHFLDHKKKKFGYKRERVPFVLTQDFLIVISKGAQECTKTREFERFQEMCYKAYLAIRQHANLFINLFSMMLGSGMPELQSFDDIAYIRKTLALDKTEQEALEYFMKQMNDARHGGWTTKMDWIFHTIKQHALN
PI3K H1047R, sequence (P27986 whole entry partner): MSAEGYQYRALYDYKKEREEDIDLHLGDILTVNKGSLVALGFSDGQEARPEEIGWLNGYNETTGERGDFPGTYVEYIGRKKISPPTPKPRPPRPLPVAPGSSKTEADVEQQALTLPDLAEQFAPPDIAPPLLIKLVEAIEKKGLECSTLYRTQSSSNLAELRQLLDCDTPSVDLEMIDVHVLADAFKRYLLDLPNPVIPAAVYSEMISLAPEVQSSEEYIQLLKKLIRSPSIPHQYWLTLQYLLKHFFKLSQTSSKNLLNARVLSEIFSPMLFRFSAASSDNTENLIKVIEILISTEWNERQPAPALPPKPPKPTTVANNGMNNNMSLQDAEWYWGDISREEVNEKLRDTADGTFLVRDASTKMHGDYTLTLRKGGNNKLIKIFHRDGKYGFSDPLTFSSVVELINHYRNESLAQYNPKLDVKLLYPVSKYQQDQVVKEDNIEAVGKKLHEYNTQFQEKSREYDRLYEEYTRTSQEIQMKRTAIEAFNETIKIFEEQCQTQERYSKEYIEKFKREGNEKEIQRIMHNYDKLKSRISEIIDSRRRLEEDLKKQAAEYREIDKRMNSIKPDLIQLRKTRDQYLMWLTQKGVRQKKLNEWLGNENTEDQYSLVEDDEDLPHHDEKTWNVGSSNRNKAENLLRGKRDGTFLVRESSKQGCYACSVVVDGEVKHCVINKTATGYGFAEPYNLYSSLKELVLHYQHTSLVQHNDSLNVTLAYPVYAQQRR

T1 sequence (P42336 whole entry H1047R): as the sequence (P42336 whole entry H1047R) above
T1 sequence (P27986 whole entry partner): as the sequence (P27986 whole entry partner) above

T47D pAKT S473 HTRF IC50 (H1047R): T47D (H1047R) selectivity over SKBR3 (WT) ([1]; T47D (H1047R) versus SKBR3 (WT) cells): A (A denotes >20-fold)
IC50 ([1]; T47D cells (H1047R), serum starved, 1 hr compound, 20 ng/ml EGF 10 min): < 750 nM
PI3K H1047R ADP-Glo (PI/PS) IC50: H1047R Selectivity ([2]; H1047R selectivity): A (A denotes >20-fold)
IC50 ([2]; PI/PS substrate): < 1000 nM
SMILES: Cc1cc(C(C)Nc2ccccc2C(=O)O)c2cc(-c3ccc4c(c3)c(C)nn4C)ncc2c1 (stereo not shown) [Compound 88]
